For 36 molecules, logP and logD results are on record in the SangsterLogP compilation.

For orientation: logP means the decadic logarithm of the partition coefficient of the neutral form, usually between octanol and water. The term logD denotes the decadic logarithm of the distribution of all forms, ionised or not, between an organic phase and buffer at a given pH.

The nature of series [1]: method code SF, from DOI: 10.1021/jm00088a010, PMID: 1350310.
A short description of series [2]: from Medić-Šarić, M; Mornar, A.; Badovinac-Črnjević, T; Jasprica, I. (2004). Experimental and calculation procedures for molecular lipophilicity: A comparative study for …. The settings on record: pH 7.4.
Series [3] is described as follows: method code SF, from DOI: 10.1021/jm000996o, PMID: 11087582. The conditions noted are these: pH 7.2.
Series [4] can be described thus: method code SF-AS, from DOI: 10.1021/ja00198a050.
Series [5] in a line: method code SF, from DOI: 10.1016/s0960-894x(01)80459-5.
Series [6] can be described thus: method code SF-HPLC, from DOI: 10.1002/jps.2600840603, PMID: 7562403. The conditions noted are these: pH 7.4.
Experiment in series [7]: not given
The source holds these as a separate data set.

Experiment in series [8]: not given
This is another data set of the same source.

The nature of series [9]: method code SF, from DOI: 10.1021/jm020886c, PMID: 12852752. The settings on record: pH 7.4.
Experiment in series [10]: not given
This is another data set of the same source.

Experiment in series [11]: not given
The source holds these as a separate data set.

Series [12] can be described thus: method code SF-HPLC, from DOI: 10.1016/j.ejps.2010.08.004, PMID: 20728535.
Series [13] can be described thus: method code SF, from DOI: 10.1021/jm980124a, PMID: 9685245. The conditions noted are these: pH 13.0.
The nature of series [14]: method code SF-EIA, from DOI: 10.1016/s0022-2275(20)42614-8, PMID: 2280184. The settings on record: pH 1.0.
Series [15] in a line: method code SF-RC, from DOI: 10.1016/j.nucmedbio.2016.01.003, PMID: 27067043. The conditions noted are these: pH 7.4.
Experiment in series [16]: not given
The source holds these as a separate data set.

The nature of series [17]: method code SF-AS, from PMID: 7170648. The conditions noted are these: pH 7.4.
Experiment in series [18]: not given
The source holds these as a separate data set.

The nature of series [19]: method code SF-RC, from DOI: 10.1021/acs.jmedchem.6b01291.s001, PMID: 27696839. The settings on record: pH 7.4.
Series [20] can be described thus: method code SF-HPLC, from DOI: 10.1211/146080899128734820. The settings on record: pH 2.0.
Series [21] is described as follows: method code SF-HPLC, from Yao, Y.; Liao, Q.; Zeng, L.; Zhang, L.; Ma, Y.; Zeng, Y. (2009). Determination of the apparent oil-water partition coeffcient of neoandrographolide and effect of pH. Pharmacy Today, 19(10)8-10. The settings on record: pH 6.0.
The nature of series [22]: method code SF-HPLC, from DOI: 10.1021/js950484a, PMID: 9002474. The settings on record: pH 7.4.
Experiment in series [23]: not given
This is another data set of the same source.

Experiment in series [24]: not given
The source holds these as a separate data set.

Experiment in series [25]: not given
The source holds these as a separate data set.

Experiment in series [26]: not given
This is another data set of the same source.

Series [27] can be described thus: method code SF-RC, from DOI: 10.2174/1874471011003010009, PMID: 20657759. The conditions noted are these: pH 7.4.
Series [28] can be described thus: method code SF-HPLC, from DOI: 10.1002/jlac.1995199512306.
Series [29] can be described thus: method code SF, from DOI: 10.1016/0006-2952(92)90292-q, PMID: 1371213. The settings on record: pH 7.4.
Experiment in series [30]: not given
The source holds these as a separate data set.

Series [31] is described as follows: method code SF, from DOI: 10.1021/jm950645n, PMID: 8576912.
Experiment in series [32]: not given
The source holds these as a separate data set.

Series [33] in a line: method code SF-RC, from DOI: 10.1016/s0969-8051(00)00170-0, PMID: 11323238. The settings on record: pH 7.4.
Series [34] can be described thus: method code SF-HPLC, from Xiong, Ð. (2009). Apparent partiton coefficient of hawthorn leaf flavonoids in phospholipids complex. Chinese Traditional Patent Medicine, 31(7)1075-1078.
Series [35] is described as follows: method code SF-HPLC, from DOI: 10.1016/j.ejps.2006.07.007, PMID: 16997537. The conditions noted are these: pH 7.4.

Consider `O=C(COc1ccc(OCCNCC(O)COc2ccccc2)cc1)N1CCc2ccccc2C1` (stereo unspecified), for which the lipophilicity (logP) in [1] amounted to 3.6.
Regarding `COc1ccccc1C(c1cc2ccccc2oc1=O)c1cc2ccccc2oc1=O`, the pH-dependent lipophilicity (logD) in series [2] was 2.5.
Molecule `CCC1(C)C2CN(Cc3ccccc3)CC1CN(CC1CCCCC1)C2` (stereo unspecified) gave a logP of 6.65.
In turn, `Cc1cn(C2CC(N=[N+]=[N-])C(COP(=O)(OCCSC(=O)C(C)(C)C)OCCSC(=O)C(C)(C)C)O2)c(=O)[nH]c1=O` (stereo unspecified) showed a pH-dependent lipophilicity (logD) in series [3] of 3.73.
`CC(C)(C)c1ccc2c(c1)OCCOCCOCCOCCOCCOCCOCCOCCOCCO2` returned a lipophilicity (logP) in series [4] of 1.69.
`CCCCCCOP(=O)(OCC1CC(O)C(n2cnc3c(N)ncnc32)O1)OCC1OC(n2cc(C)c(=O)[nH]c2=O)CC1N=[N+]=[N-]` (stereo unspecified): in series [5], the log partition coefficient (logP) turned out to be 1.11.
The molecule `CCCC1O[C@@H]2C[C@H]3[C@@H]4CCC5=CC(=O)C=C[C@]5(C)[C@H]4[C@@H](O)C[C@]3(C)[C@]2(C(=O)CO)O1` (stereo partly specified) gave a pH-dependent lipophilicity (logD) in series [6] of 3.55.
`CCCCCCCCc1ccc(OCC(=O)Cn2cc(C(C)=O)c3cc(C(=O)O)ccc32)cc1` showed a logP in series [7] of 5.8.
In series [8], `CN1CN(c2ccccc2)C2(CCN(CCCC(=O)c3ccc(F)cc3)CC2)C1=O` showed a lipophilicity (logP) of 3.37.
In series [9], `Cc1ccc(CCOCCCS(=O)(=O)CCNCCc2ccc(O)c3[nH]c(=O)sc23)cc1-c1nccs1` had a logD of 1.44.
In [10], `CC(C)(C)OC(=O)NC(Cc1ccccc1)C(=O)N1CCCC1C(=O)NCc1ccc(N)cc1` (stereo unspecified) yielded a logP of 2.34.
Consider `CC(C)C(Nc1ccc(C(F)(F)F)cc1Cl)C(=O)OC(C#N)c1cccc(Oc2ccccc2)c1` (racemic), for which the logP in series [11] turned out to be 5.5.
The molecule `CCCCCCCCCCCCCCCCCC(=O)OC[C@@H]1O[C@H](n2ccc(N)nc2=O)CS1` showed a logP in series [12] of 1.82.
Consider `CCC(C)c1ccc(N2CCCN(c3ccc(C(C)CC)cc3)C2=N)cc1` (stereo unspecified), for which the logD in [13] came to 5.28.
Molecule `C[C@H](CCC(=O)NCC(=O)O)[C@H]1CC[C@H]2[C@@H]3C[C@H](O)[C@@H]4C[C@H](O)CC[C@]4(C)[C@H]3CC[C@]12C` registered a logD in [14] of 2.15.
In turn, `C=CC(=O)NCCCC[C@H](NC(=O)Cc1ccccc1)C(=O)N1CCN(c2cccc(C)n2)CC1` displayed a pH-dependent lipophilicity (logD) in series [15] of 2.09.
Turning to `CCC12C=C(C(=O)OCCOC(C)=O)n3c4c(c5ccccc53)CCN(CCC1)C42` (stereo unspecified), in series [16], the logP was 4.5.
Molecule `CCN(Cc1cc(Nc2ccnc3cc(Cl)ccc23)ccc1O)C(=O)N1CCN(C)CC1` displayed a logD in [17] of 3.43.
For the molecule `CCCN(CCCCN1C(=O)CC2(CCCC2)C(O)C1=O)C1COc2cccc(OC)c2C1` (stereo unspecified), the log partition coefficient (logP) in series [18] was found to be 4.1.
Molecule `O=C(NO)C1CC(O)CN1C(=O)c1ccc(C#Cc2ccc(OCCCCCF)cc2)cc1` (stereo unspecified) yielded a logD in series [19] of 2.5.
Regarding `CC[C@H](C)C(=O)O[C@H]1C[C@@H](C)C=C2C=C[C@H](C)[C@H](CC[C@@H]3C[C@@H](O)CC(=O)O3)[C@H]21`, the logD in series [20] turned out to be 4.04.
Take `C=C1CC[C@@H]2[C@](C)(CO[C@@H]3O[C@H](CO)[C@@H](O)[C@H](O)[C@H]3O)CCC[C@@]2(C)[C@@H]1CCC1=CCOC1=O`: the log distribution coefficient (logD) in series [21] worked out at 0.44.
Consider `CCCCCCCC/C=C\CCCCCCCC(=O)NCc1ccc(O)c(OC)c1`, for which, in series [22], the log distribution coefficient (logD) stood at 8.02.
Regarding `CC(C)C[C@H](NC(=O)Cc1ccc(C(=O)O)c(OCCF)c1)c1ccccc1N1CCCCC1`, the log partition coefficient (logP) in series [23] is 2.39.
`CC(=O)OC1C(c2ccc(=O)oc2)[C@@]2(C)CC[C@H]3[C@@H](CC[C@@H]4CC(O)CC[C@@]43C)[C@]23OC13` (stereo partly specified): the log partition coefficient (logP) in series [24] amounted to 3.27.
Turning to `CC1C=C(C(=O)Nc2ccc(-c3ccccc3S(N)(=O)=O)cc2)N(c2ccc3ccnc(N)c3c2)N1` (stereo unspecified), the logP in series [25] amounted to 2.6.
In [26], `CC(=O)OCC(=O)[C@@]1(O)[C@H](C)C[C@H]2[C@@H]3CCC4=CC(=O)C=C[C@]4(C)[C@@]3(F)[C@@H](O)C[C@@]21C` returned a logP of 2.59.
Molecule `COc1ccc2cccc(N3CCN(CCNC(=O)c4ccc(F)cc4)CC3)c2c1` displayed a pH-dependent lipophilicity (logD) in series [27] of 4.14.
`Cc1cn(C2CC(N=[N+]=[N-])C(COP(=O)(OCc3ccc(Cl)cc3)OCC3OC(n4cc(C)c(=O)[nH]c4=O)CC3N=[N+]=[N-])O2)c(=O)[nH]c1=O` (stereo unspecified): the log partition coefficient (logP) in series [28] came out at 2.06.
Take `CN(CC(=O)N[C@@H]1CC[C@@]2(O)[C@H]3Cc4ccc(O)c5c4[C@@]2(CCN3CC2CC2)[C@H]1O5)c1ccc([N+](=O)[O-])c2nonc12`: the log distribution coefficient (logD) in series [29] was 1.
`COC(=O)CC(O)CC(O)C=Cn1c(C(C)C)nc(-c2cccc(Br)c2)c1-c1ccc(F)cc1` (stereo unspecified) showed a logP in series [30] of 2.8.
Take `C#CCN(Cc1ccc2[nH]c(C)nc(=O)c2c1)c1ccc(C(=O)NCc2cccc([N+](=O)[O-])c2)cc1`: the log partition coefficient (logP) in [31] worked out at 3.7.
As to `O=C(CCCCCCCCCCn1ccnc1[N+](=O)[O-])Nc1ccc(-c2nc3ccccc3s2)cc1`, in series [32], the logP is 1.99.
`COc1cc2ncnc(N3CCC(n4c(=O)c5cc(C)ccc5n(C)c4=O)CC3)c2cc1OC` returned a logD in series [33] of 3.14.
On to `C[C@@H]1O[C@@H](O[C@@H]2[C@@H](O)[C@H](O)[C@@H](CO)O[C@H]2c2c(O)cc(O)c3c(=O)cc(-c4ccc(O)cc4)oc23)[C@H](O)[C@H](O)[C@H]1O`, for which, in [34], the log partition coefficient (logP) was -0.92.
`CCN(CC)C(=O)COC(=O)C1OC(Oc2cc3oc(-c4ccc(O)cc4)cc(=O)c3c(O)c2O)C(O)C(O)C1O` (stereo unspecified): the logD in [35] was determined as 1.48.
